From patent US7834024B2, “Compositions and methods for inhibition of the JAK pathway” (Rigel Pharmaceuticals, Inc., priority 2007, dated 2010)
Like-named read-outs stand apart in the source and are kept apart here.

Test system: Ramos B-Cell Line Stimulated with IL-4 (JAK-1 and JAK-3 / Stat-6, CD23)
Test: Assay for Ramos B-Cell Line Stimulated with IL-4 (CD23 upregulation, FACS)
Type: cell-based
Settings: human Ramos B cells, compound 1 hour, IL-4 50 units/mL for 20-24 hours, anti-CD23-PE FACS, read-out: Example 2 (IC50)
How it was run: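 Human Ramos B cells (5×10^4 per point, RPMI with 5% serum) pre-incubated 1 hour at 37° C with compound or DMSO, then stimulated with IL-4 at 50 units/mL final for 20-24 hours. CD23 upregulation measured by flow cytometry.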

Structure (SMILES) | IC50 (Homo sapiens, Ramos) [nM] | IC50 [nM]
CCc1cc(Nc2ncc(F)c(Nc3cccc(OCC#N)c3)n2)cc(C#N)c1Cl [Compound I-105, N2-(4-Chloro-3-cyano-5-ethylphenyl)-N4-(3-cyanomethoxyphenyl)-5-fluoro-2,4-pyrimidinediamine] | 31600 | 
CCc1cc(Nc2ncc(F)c(Nc3ccc(CC#N)cc3)n2)cc(C#N)c1Cl [Compound I-106, N2-(4-Chloro-3-cyano-5-ethylphenyl)-N4-(4-cyanomethylphenyl)-5-fluoro-2,4-pyrimidinediamine] | 7020 | 
N#CCOc1ccc(Nc2ncc(F)c(Nc3ccc(OCC#N)c(Cl)c3)n2)cc1Cl [Compound I-107, N2,N4-Bis(3-chloro-4-cyanomethoxyphenyl)-5-fluoro-2,4-pyrimidinediamine] | 350 | 
CCc1cc(Nc2ncc(F)c(Nc3ccc(OCC#N)c(Cl)c3)n2)cc(C#N)c1Cl [Compound I-108, N2-(4-Chloro-3-cyano-5-ethylphenyl)-N4-(3-chloro-4-cyanomethoxyphenyl)-5-fluoro-2,4-pyrimidinediamine] | 1800 | 
CNC(=O)COc1cccc(Nc2ncc(F)c(Nc3cc(OC)c(OC)c(OCC#N)c3)n2)c1 [Compound I-109, N4-(3-Cyanomethoxy-4,5-dimethoxyphenyl)-5-fluoro-N2-[3-(N-methylaminocarbonylmethyleneoxy)phenyl]-2,4-pyrimidinediamine] |  | 660
Cc1noc(COc2ccc(Nc3nc(Nc4ccc(CC#N)cc4)ncc3F)cc2)n1 [Compound I-110, N2-(4-Cyanomethylphenyl)-5-fluoro-N4-[4-((3-methyl-1,2,4-oxadiazol-5-yl)methoxy)phenyl]-2,4-pyrimidinediamine] | 29.8 | 
Cc1noc(COc2ccc(Nc3nc(Nc4cccc(C#N)c4)ncc3F)cc2)n1 [Compound I-111, N2-(3-Cyanophenyl)-5-fluoro-N4-[4-((3-methyl-1,2,4-oxadiazol-5-yl)methoxy)phenyl]-2,4-pyrimidinediamine] | 1050 | 
Cc1noc(Cc2ccc(Nc3nc(Nc4ccc(CC#N)cc4)ncc3F)cc2)n1 [Compound I-113, N2-(4-Cyanomethylphenyl)-5-fluoro-N4-[4-((3-methyl-1,2,4-oxadiazol-5-yl)methyl)phenyl]-2,4-pyrimidinediamine] | 149 | 
Cc1noc(CCCc2ccc(Nc3nc(Nc4cccc(C#N)c4)ncc3F)cc2)n1 [Compound I-114, N2-(3-Cyanophenyl)-5-fluoro-N4-[4-(3-(3-methyl-1,2,4-oxadiazol-5-yl)propyl)phenyl]-2,4-pyrimidinediamine] | 1750 | 
Cc1noc(COc2ccc(Nc3nc(Nc4ccc(CC#N)cc4)ncc3F)c(C)c2)n1 [Compound I-115, N2-(4-Cyanomethylphenyl)-5-fluoro-N4-[2-methyl-4-((3-methyl-1,2,4-oxadiazol-5-yl)methoxy)phenyl]-2,4-pyrimidinediamine] | 258 | 
Cc1noc(COc2ccc(Nc3nc(Nc4cccc(C#N)c4)ncc3F)c(C)c2)n1 [Compound I-116, N2-(3-Cyanophenyl)-5-fluoro-N4-[2-methyl-4-((3-methyl-1,2,4-oxadiazol-5-yl)methoxy)phenyl]-2,4-pyrimidinediamine] | 1440 | 
N#CCc1ccc(Nc2ncc(F)c(Nc3ccc(F)c(Cl)c3)n2)cc1 [Compound I-117, N4-(3-Chloro-4-fluorophenyl)-N2-(4-cyanomethylphenyl)-5-fluoro-2,4-pyrimidinediamine] | 6710 | 
N#CCc1ccc(Nc2ncc(F)c(Nc3ccc(F)c(C#N)c3)n2)cc1 [Compound I-118, N4-(3-Cyano-4-fluorophenyl)-N2-(4-cyanomethylphenyl)-5-fluoro-2,4-pyrimidinediamine] | 103000 | 
Cc1noc(CCc2ccc(Nc3nc(Nc4ccc(CC#N)cc4)ncc3F)cc2)n1 [Compound I-120, N2-(4-Cyanomethylphenyl)-5-fluoro-N4-[4-(2-(3-methyl-1,2,4-oxadiazol-5-yl)ethyl)phenyl]-2,4-pyrimidinediamine] | 1950 | 
Cc1noc(CCc2ccc(Nc3nc(Nc4ccc(CCC#N)cc4)ncc3F)cc2)n1 [Compound I-121, 5-Fluoro-N4-[4-(2-(3-methyl-1,2,4-oxadiazol-5-yl)ethyl)phenyl]-N2-[4-(2-cyanoethyl)phenyl]-2,4-pyrimidinediamine] | 2140 | 
COC(=O)c1ccc(Nc2nc(Nc3cccc(C(N)=O)c3)ncc2F)s1 [Compound I-123, N2-(3-Aminocarbonylphenyl)-5-fluoro-N4-(5-methoxycarbonylthiophen-2-yl)-2,4-pyrimidinediamine] | 1060 | 
CCN(CC)CCNC(=O)c1ccc(Nc2ncc(F)c(Nc3cccc(OCc4nc(C)no4)c3)n2)cc1 [Compound I-125, N2-[4-(2-(N,N-Diethylamino)ethylaminocarbonyl)phenyl]-5-fluoro-N4-[3-(3-methyl-1,2,4-oxadiazol-5-yl)methyleneoxyphenyl]-2,4-pyrimidinediamine] |  | 103

Structure (SMILES) | IC50 (Homo sapiens, Ramos) [nM] | IC50 [nM]
CCN(CC)CCNC(=O)c1ccc(Nc2ncc(F)c(Nc3ccc(OCc4cc(C)on4)cc3)n2)cc1 [Compound I-127, N2-[4-(2-(N,N-Diethylamino)ethylaminocarbonyl)phenyl]-5-fluoro-N4-[4-((5-methylisoxazol-3-yl)methyleneoxy)phenyl]-2,4-pyrimidinediamine] |  | 9.33
Cc1noc(COc2cccc(Nc3nc(Nc4cccc(C(N)=O)c4)ncc3F)c2)n1 [Compound I-128, N2-(3-Aminocarbonylphenyl)-5-fluoro-N4-[3-((3-methyl-1,2,4-oxadiazol-5-yl)methyleneoxy)phenyl]-2,4-pyrimidinediamine] |  | 206
Cc1noc(COc2cccc(Nc3nc(Nc4ccc(CC#N)cc4)ncc3F)c2)n1 [Compound I-129, N2-(4-Cyanomethylphenyl)-5-fluoro-N4-[3-((3-methyl-1,2,4-oxadiazol-5-yl)methyleneoxy)phenyl]-2,4-pyrimidinediamine] |  | 1290
Cc1cc(COc2ccc(Nc3nc(Nc4ccc(CC#N)cc4)ncc3F)cc2)no1 [Compound I-130, N2-(4-Cyanomethylphenyl)-5-fluoro-N4-[4-((5-methylisoxazol-3-yl)methyleneoxy)phenyl]-2,4-pyrimidinediamine] |  | 344
N#CCc1ccc(Nc2ncc(F)c(Nc3ccc(Cc4ccncc4)cc3)n2)cc1 [Compound I-131, N2-(4-Cyanomethylphenyl)-5-fluoro-N4-[4-(4-pyridinylmethyl)phenyl]-2,4-pyrimidinediamine] | 382 | 
CNC(=O)COc1cccc(Nc2ncc(F)c(Nc3ccc(Cc4ccncc4)cc3)n2)c1 [Compound I-132, 5-Fluoro-N2-[3-(N-methylaminocarbonylmethyleneoxy)phenyl]-N4-[4-(4-pyridinylmethyl)phenyl]-2,4-pyrimidinediamine] |  | 322
NC(=O)c1cccc(Nc2ncc(F)c(Nc3ccc(OCc4ccccn4)cc3)n2)c1 [Compound I-133, N2-(3-Aminocarbonylphenyl)-5-fluoro-N4-[4-(2-pyridinylmethyleneoxy)phenyl]-2,4-pyrimidinediamine] |  | 1560
Cc1cnc(Nc2cccc(C(N)=O)c2)nc1Nc1ccc(OCc2ccccn2)cc1 [Compound I-134, N2-(3-Aminocarbonylphenyl)-5-methyl-N4-[4-(2-pyridinylmethyleneoxy)phenyl]-2,4-pyrimidinediamine] |  | 84.6
CCN(CC)CCNC(=O)c1ccc(Nc2ncc(F)c(Nc3ccc(OCc4ccccn4)cc3)n2)cc1 [Compound I-135, N2-[4-(2-(N,N-Diethylamino)ethylaminocarbonyl)phenyl)-5-fluoro-N4-[4-(2-pyridinylmethyleneoxy)phenyl]-2,4-pyrimidinediamine] |  | 56
CC1(C)Oc2ccc(Nc3nc(Nc4ccc5oc(C(=O)NCCN6CCOCC6)cc5c4)ncc3F)nc2NC1=O [Compound V-1, N4-[2,2-Dimethyl-3-oxo-4H-5-pyrido[1,4]oxazin-6-yl]-5-fluoro-N2-[2-(2-(N-morpholinyl)ethylaminocarbonyl)benzofuran-5-yl]-2,4-pyrimidinediamine] | 144 | 
C#CCOc1ccc(Nc2nc(Nc3ccc4c(c3)C(=O)NCC4)ncc2F)cc1 [Compound V-2, 5-Fluoro-N2-(1-oxo-1,2,3,4-tetrahydroisoquinolin-7-yl)-N4-[4-(2-propynyloxy)phenyl]-2,4-pyrimidinediamine] | 355 | 
CNC(=O)COc1cccc(Nc2ncc(N)c(Nc3ccc4cn[nH]c4c3)n2)c1 [Compound V-4] | 1970 | 
CNC(=O)COc1cccc(Nc2ncc(Br)c(Nc3ccc4c(c3)OCCO4)n2)c1 [II-1, 5-Bromo-N4-(3,4-ethylenedioxyphenyl)-N2-[3-(N-methylaminocarbonylmethyleneoxy)phenyl]-2,4-pyrimidinediamine] |  | 80.9
CN1CCOc2cc(Nc3nc(Nc4ccc(C(N)=O)cc4)ncc3F)ccc21 [II-3, N2-(4-Aminocarbonylphenyl)-N4-(3,4-dihydro-4-methyl-2H-benzo[1,4]oxazin-7-yl)-5-fluoro-2,4-pyrimidinediamine] | 62.9 | 
CN1C(=O)CSc2ccc(Nc3nc(Nc4ccc(C(N)=O)cc4)ncc3F)cc21 [II-4, N2-(4-Aminocarbonylphenyl)-5-fluoro-N4-(4-methyl-3-oxo-2H-benzo[1,4]thiazin-6-yl)-2,4-pyrimidinediamine] | 5.43 | 
CNC(=O)COc1cccc(Nc2ncc(C)c(Nc3ccc4c(c3)NC(=O)CO4)n2)c1 [II-5, 5-Methyl-N2-[3-(N-methylaminocarbonylmethyleneoxy)phenyl]-N4-(3-oxo-2H,4H-benzo[1,4]oxazin-6-yl)-2,4-pyrimidinediamine] |  | 28.5
Cc1cnc(Nc2cccc(C#N)c2)nc1Nc1ccc2c(c1)NC(=O)CS2 [II-9, N2-(3-Cyanophenyl)-5-methyl-N4-(3-oxo-2H,4H-benzo[1,4]thiazin-6-yl)-2,4-pyrimidinediamine] | 73.4 | 
